Laboratory results reported in PubChem BioAssay (NCI).
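Step 1: Grow cells in 96-well plates. Step 2: Expose to compound for 48 hours at 5 concentrations. Step 3: Interpolate endpoints linearly; if unreached, use highest concentration. The concentration for 50% growth inhibition is given as GI50. Definition used: TGI = concentration required for complete inhibition of growth.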

Legend:
Experiment in all cases: NCI anticancer screen, dose series, 48 h
786-0 renal = tested on: 786-0 renal
ACHN renal = tested on: ACHN renal
HOP-92 NSCLC = tested on: HOP-92 NSCLC
SNB-75 CNS = tested on: SNB-75 CNS
SNB-19 CNS = tested on: SNB-19 CNS
TK-10 renal = tested on: TK-10 renal
RPMI-8226 leukemia = tested on: RPMI-8226 leukemia
HL-60(TB) leukemia = tested on: HL-60(TB) leukemia
MDA-MB-435 = tested on: MDA-MB-435
HS 578T breast = tested on: HS 578T breast

Row | Structure (SMILES) | TGI (786-0 renal) | TGI (ACHN renal) | TGI (HOP-92 NSCLC) | TGI (SNB-75 CNS) | TGI (SNB-19 CNS) | TGI (TK-10 renal) | TGI (RPMI-8226 leukemia) | TGI (HL-60(TB) leukemia) | GI50 (786-0 renal) | GI50 (ACHN renal) | GI50 (MDA-MB-435) | TGI (MDA-MB-435) | GI50 (SNB-75 CNS) | GI50 (HS 578T breast) | TGI (HS 578T breast) | GI50 (SNB-19 CNS) | GI50 (TK-10 renal) | GI50 (RPMI-8226 leukemia) | GI50 (HL-60(TB) leukemia) | GI50 (HOP-92 NSCLC)
1 | CNC1=C(C)C(=O)C(C)=C(C(C)(C)CC(=O)n2cc(F)c(=O)[nH]c2=O)C1=O | > 100 µM | > 100 µM | > 100 µM | > 100 µM | > 100 µM | > 100 µM | > 100 µM | > 100 µM |  |  |  |  |  |  |  |  |  |  |  | 
2 | COc1cc2c(c3oc(-c4ccc5c(c4)OCO5)c(O)c(=O)c13)CCC(C)(C)O2 | > 100 µM |  |  | > 100 µM | > 100 µM | > 100 µM | > 100 µM | > 100 µM |  |  |  |  |  |  |  |  |  |  |  | 
3 | C#CCOCn1cnc2ncnc(Cl)c21 | > 100 µM | > 100 µM | > 100 µM | > 100 µM | > 100 µM | > 100 µM | > 100 µM |  |  |  |  |  |  |  |  |  |  |  |  | 
4 | COc1cc(C)c(C(=O)/C=C/c2cc(OC)c(O)c(OC)c2)cc1O | 39.7 µM | > 100 µM |  | > 100 µM | 44.5 µM | > 100 µM | > 100 µM | 64.8 µM |  |  |  |  |  |  |  |  |  |  |  | 
5 | COc1cc(C2[C@H]3C(=O)N(c4ccc(Cc5ccc(N6C(=O)[C@@H]7ON(c8ccccc8)C(c8cc(OC)c(OC)c(OC)c8)[C@@H]7C6=O)cc5)cc4)C(=O)[C@H]3ON2c2ccccc2)cc(OC)c1OC (some centres not stated) | > 100 µM | > 100 µM |  | > 100 µM | > 100 µM | > 100 µM | > 100 µM | > 100 µM |  |  |  |  |  |  |  |  |  |  |  | 
6 | NC1=CC(=O)C(=O)c2cccnc21 | 28 µM | 19.9 µM |  | 15.3 µM | 21.6 µM | 68.2 µM | 9.91 µM | 9.08 µM | 14.8 µM | 6.73 µM | 1.74 µM | 3.17 µM | 3.02 µM | 5.16 µM | 55.1 µM | 5.86 µM | 29.3 µM | 2.65 µM | 2.8 µM | 
7 | CSc1nc2c(nc(N)n2C2OCC(O)C(O)C2O)c(=O)[nH]1 (configuration not stated) | > 100 µM | > 100 µM | > 100 µM | > 100 µM | > 100 µM | > 100 µM |  | > 100 µM |  |  |  |  |  |  |  |  |  |  |  | 
8 | CC(=O)Nc1ccc(-c2nnc(SCC(=O)Nc3ccccc3[N+](=O)[O-])o2)cc1 | > 100 µM | > 100 µM | > 100 µM | > 100 µM |  | > 100 µM | > 100 µM | > 100 µM |  |  |  |  |  |  |  |  |  |  |  | 
9 | CCCCNC(=S)/N=C/c1c(O)c2ccccc2oc1=O | > 100 µM | > 100 µM | > 100 µM | > 100 µM | > 100 µM | > 100 µM |  |  |  |  |  | > 100 µM |  |  |  |  |  |  |  | 
10 | O=C1c2cnccc2Cc2cccc3c2N1c1ccccc1S3 | 97.8 µM | 73.9 µM | 38.5 µM | 48.5 µM | 74.6 µM |  | 88.1 µM | 67.1 µM |  |  |  |  |  |  |  |  |  |  |  | 
11 | COc1cc(NCC(C#N)C#N)ccc1N=Nc1ccc([N+](=O)[O-])cc1 | > 100 µM | > 100 µM |  | > 100 µM | > 100 µM | > 100 µM | > 100 µM |  |  |  |  |  |  |  |  |  |  |  |  | 
12 | COc1ccc(C(=O)Nc2ncc(Cc3ccc(F)cc3)s2)cc1 | > 100 µM | > 95 µM | 76 µM | > 100 µM | > 100 µM | 98.3 µM |  | 0.169 µM | 0.11 µM | 0.0664 µM |  |  | 0.036 µM | 0.052 µM | 34.6 µM | 0.0963 µM | 4.31 µM | 0.0373 µM | 0.0315 µM | 1.45 µM
13 | NNC(=O)CC(=O)Nc1ccccc1F | > 100 µM | > 100 µM | > 100 µM | > 100 µM | > 100 µM |  | > 100 µM | > 100 µM |  |  |  |  |  |  |  |  |  |  |  | 
14 | O=C1C=C(N2CC2)c2ccccc2C1=O | 3.28 µM | 2.96 µM | 3.41 µM | 3.12 µM | 3.35 µM | 3.64 µM | 5.13 µM | 6.54 µM | 1.83 µM | 1.58 µM | 0.778 µM | 2.23 µM | 1.57 µM |  |  | 1.83 µM | 2.15 µM | 1.81 µM | 2.68 µM | 1.63 µM
15 | CC1=C(C(=O)Nc2ccccc2C)C(c2ccc(N(C)C)cc2)C(C(=O)Nc2ccccc2C)=C(C)N1 | > 100 µM | > 100 µM |  |  | > 100 µM | > 100 µM | > 100 µM | 53.8 µM |  |  |  |  |  |  |  |  |  |  |  | 
16 | Cc1cc(N(CCCNc2ccnc3cc(Cl)ccc23)Cc2cccs2)nc(Cl)n1 | 20.6 µM | 19.7 µM | 20 µM | 18 µM | 25.4 µM | 20.9 µM | 9.71 µM |  | 5.48 µM | 5.12 µM | 4 µM | 15.8 µM | 2.82 µM | 9.29 µM | 41.5 µM | 7.58 µM | 5.96 µM | 1.43 µM |  | 2.63 µM
17 | O=C1C2C(C(=O)[N]1[Hg][c]1ccccc1)C1(Cl)C(Cl)=C(Cl)C2(Cl)C1(Cl)Cl (configuration not stated) | 3.48 µM | 3.07 µM | 3.97 µM | 2.92 µM | 2.99 µM | 2.86 µM | 5.94 µM | 8.77 µM | 1.85 µM | 1.69 µM |  |  | 1.33 µM | 0.771 µM | > 100 µM | 1.54 µM | 1.51 µM | 1.64 µM | 2.51 µM | 1.87 µM
18 | COc1ccc2oc(-c3ccncc3)cc(=O)c2c1 | > 100 µM | > 100 µM | > 100 µM | > 100 µM | > 100 µM |  | > 100 µM | > 100 µM |  |  |  |  |  |  |  |  |  |  |  | 
19 | O=C1OCC2=C1C(c1cccc(F)c1)c1cc3c(cc1N2CCO)OCCO3 (configuration not stated) | > 50 µM | > 50 µM | > 50 µM | 0.38 µM | > 50 µM | > 50 µM | > 50 µM | 0.387 µM | 0.208 µM | 0.386 µM |  |  | 0.113 µM | 0.179 µM | 7.16 µM | 0.275 µM | 0.363 µM | 0.207 µM | 0.137 µM | 2.07 µM
20 | CCC[CH2][Sn]1([CH2]CCC)[O]C(=O)C[S]1 | 2.83 µM | 3.04 µM | 3.95 µM | 3.27 µM | 2.5 µM | 2.92 µM | 3.57 µM | 4.66 µM | 1.49 µM | 1.64 µM |  |  | 1.35 µM |  |  | 1.22 µM | 1.55 µM | 0.455 µM | 1.02 µM | 1.84 µM
